Holding throughout (test): growth of human tumour cells (NCI), 48 h
Assay [1] concerns UACC-257 melanoma.
The subject of assay [2] is A549 NSCLC.
The test system of assay [3] is HCC-2998 colon.
Assay [4] relates to SK-OV-3 ovarian.
For assay [5], the system named is NCI-H522 lung.
Assay [6] deals with M14 melanoma.
The test system of assay [7] is HS 578T breast.
Assay [8] deals with SF-295 CNS.
Assay [9] relates to DU-145 prostate.
Assay [10] concerns OVCAR-8 ovarian.

Where “and” joins values, the source holds several entries; their conditions need not be identical. Equal values may be shown once.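 Protocol summary: plate cells (96-well), add compound at 5 concentrations, incubate 48 h, interpolate endpoints linearly. Abbreviation: GI50, concentration required for 50% inhibition of growth. Definition used: TGI = concentration required for complete inhibition of growth.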 Bounds are passed on as bounds.

For `O=C1CCC2=C(CCC2)N1CCc1ccc2c(c1)OCO2`, the TGI in [1], in [2], in assay [3], in assay [4], in assay [5] and in assay [6] was over 100 µM each time. Also, the TGI in assay [7], in assay [8] and in assay [9] was over 100 µM each time.
For `CCCCCC(/C=C/[C@@H]1CC(=O)C[C@H]1O[Si](C)(C)C(C)(C)C)OCOCCOC` (stereo partly drawn), the TGI in assay [1] stood at 11 µM; in [2], 33.5 µM; in assay [3] it was 29.8 µM; in [4] it was 32 µM; in [10] it was 18.3 µM; in assay [5] it was 4.01 µM. Further, the TGI was determined as 19.5 µM in assay [6], 8.04 µM in assay [7], 25.5 µM in assay [8] and 32.8 µM in [9].
On to `CN(N)C(=O)NCCCl`, for which the TGI in [1], in assay [2], in [3], in assay [4], in [5] and in [6] was over 100 µM each time. In addition, the TGI in assay [7], in [8] and in assay [9] was over 100 µM each time.
In the case of `N=C1N=C(N)c2cc3c(cc21)SCCSCCCSCCS3`, the TGI in assay [1] was found to be 44 µM; in assay [2], 49.8 µM; in assay [3], 27.8 µM; in [4], 41.1 µM; in [10] it was 41.3 µM; in assay [5] it was 11.1 µM. The TGI in assay [6] was determined as 35.7 µM; in assay [7], 44.2 µM; in assay [8], 31.1 µM; in assay [9], 88.4 µM.
As for `CCN(CC)C(=S)SNCCc1ccc(S(N)(=O)=O)cc1`, the TGI in assay [1] was 32.9 µM; in assay [2] it was 26.5 µM; in [3], 50.6 µM; in [4], over 73.1 µM; in assay [10] it was 25.2 µM; in assay [5], 4.63 µM. Also, the TGI in assay [6] was 23.1 µM; in [7], 53.1 µM; in assay [8], 47.5 µM; in [9] it was 33.8 µM.
With `CC(=O)NC1C(OCc2ccccc2)OC(CO)C(O)C1OCC(=O)NC(C)C(=O)NC(CCC(=O)NCCCCCC(=O)Nc1ccc2c(c1)CN1C(=O)c3ccccc3C1=N2)C(N)=O` (stereo not drawn), the TGI in [1], in [2], in assay [3], in assay [4], in [10] and in assay [6] was over 100 µM throughout. Moreover, the TGI in assay [7], in [8] and in [9] was over 100 µM throughout.
For the molecule `O=[N+]([O-])c1cccc2nc3ccccc3c(NCCC[N+]3([O-])CCCCC3)c12`, the TGI is 0.55 µM in [1]; 3.92 µM in assay [2]; 0.272 µM in [3]; 4.58 µM in assay [4]; 13.6 µM in assay [10]; 0.345 µM in [5]. Besides, the TGI worked out at 2.95 µM in assay [6], 4.02 µM in assay [7], 12.6 µM in [8] and 1.9 µM in [9].
Turning to `Cc1ccc(S(=O)(=O)n2cc(-c3cnc(N)c(Br)n3)c3ccccc32)cc1`, the TGI is over 100 µM in assay [1]; over 100 µM in [2]; over 100 µM in [3]; over 100 µM in assay [4]; over 100 µM in [10]; over 55.1 µM in [6]. Besides, the TGI is 2.97 µM in [7], over 100 µM in assay [8] and 6.68 µM in [9].
For the molecule `Cc1nnc(N)nc1/C=C\c1cccs1`, the TGI in assay [1] was over 100 µM; in assay [2], over 100 µM; in [3], 30.9 µM; in [4] it was over 100 µM; in assay [10] it was 44.5 µM; in [5], 17.6 µM. The TGI in assay [6] was 36.9 µM; in assay [7], over 100 µM; in assay [8] it was over 100 µM; in assay [9], over 100 µM.
On to `C[C@H](CC[C@@H](O)C(C)(C)O)[C@H]1CC[C@@]2(C)[C@@H]3CC=C4[C@@H](CC[C@H](OC5OC(CO)C(O)C(O)C5O)C4(C)C)[C@]3(C)C(=O)C[C@]12C` (stereo partly drawn), for which the TGI in [1], in assay [2], in [3], in [4], in [10] and in assay [5] was over 100 µM each time. The TGI in assay [6] was 92.1 µM; in assay [7] it was over 100 µM; in assay [8], over 100 µM; in [9], over 100 µM.
For `N#CC1N(C(=O)c2ccc(F)cc2)c2ccccc2N1C(=O)c1ccc(F)cc1`, the TGI in assay [1], in assay [2], in [3], in [4], in assay [10] and in assay [5] was over 100 µM in each case. Also, the TGI in assay [6], in assay [7], in [8] and in assay [9] was over 100 µM each time.
For `O=C1Nc2ccccc2NC1C1OC(c2ccccc2)=CC1=O` (stereo not drawn), the TGI in assay [1], in assay [2], in assay [3], in assay [4], in [10] and in [6] was over 100 µM throughout. In addition, the TGI in assay [7], in [8] and in assay [9] was over 100 µM throughout.
Regarding `Cc1cc(=O)c2c(O)c3c(O)cc(O)c4c5c(O)cc(O)c6c(O)c7c(=O)cc(C)c8c1c2c(c34)c(c65)c78`, the GI50 in assay [1] is over 100 µM; in assay [3] it was > 100 µM and 28.3 µM; in [4], > 100 µM and 21.6 µM; in [5], > 100 µM and 19.4 µM; in assay [8], > 100 µM and 16.6 µM. The TGI was over 100 µM in assay [1]; over 100 µM in [2]; over 100 µM in [3]; > 100 µM and 41.9 µM in assay [4]; over 100 µM in assay [10]; > 100 µM and 44.2 µM in assay [5]. Also, the TGI in assay [6] was over 100 µM; in assay [7] it was over 100 µM; in assay [8], > 100 µM and 37.6 µM; in assay [9], over 100 µM.
In the case of `C=C(C)CC1=C(C(=S)NCCO[Si](C)(C)C(C)(C)C)C(OCC)(OCC)C1=O`, the TGI in assay [1] is 32.1 µM; in assay [2], 36.9 µM; in [4], 41.4 µM; in assay [10], over 100 µM; in [5], 29 µM; in assay [6], 35 µM. The results for the TGI in [7], in assay [8] and in assay [9] were over 100 µM, 33.1 µM and 76.3 µM, respectively.
Consider `CC1(C)Oc2ccc(Cl)cc2C12CC2`, for which the TGI in assay [1] worked out at 30.1 µM; in [2], 48.4 µM; in assay [3], 30.6 µM; in [4], 44.7 µM; in assay [10], 28.4 µM; in assay [6], 35.5 µM. For the same molecule, the TGI in [7] was 44.8 µM; in assay [8] it was 27 µM; in assay [9] it was 29.5 µM.
Take `C=C1C(=O)[C@]23[C@H](O)[C@H]1CC[C@H]2[C@@]12CO[C@@]3(O)C[C@@H]1C(C)(C)CC[C@@H]2O`: the TGI was 21.1 µM in [1]; over 25 µM in assay [2]; 23.4 µM in [3]; over 25 µM in assay [10]; 8.8 µM in assay [5]; 22.2 µM in assay [7]. The TGI in [8] and in assay [9] was over 25 µM each time.
For the molecule `CCOC(OCC)C(CCc1ccccc1)c1c(N)nc(N)[nH]c1=O` (stereo not drawn), the TGI was over 100 µM in assay [1]; over 100 µM in assay [2]; over 100 µM in assay [3]; 90.7 µM in [4]; over 100 µM in assay [10]; over 100 µM in assay [6]. For the same molecule, the TGI in assay [7], in assay [8] and in assay [9] was over 100 µM in each case.
For the molecule `Cc1cc(NC2=NCCO2)c2c(c1C)CCCC2`, the TGI in assay [1] is 39.1 µM; in assay [2] it was over 100 µM; in [3], 29 µM; in assay [4], over 100 µM; in assay [10], over 100 µM; in assay [6], 28.1 µM. Also, the TGI is over 100 µM in assay [7], 31.8 µM in [8] and over 100 µM in assay [9].
As for `COC(=O)c1ccc(C)cc1C1CN=NC12Cc1cc(C)c(C)cc1C2=O` (stereo not drawn), the TGI in assay [1] was over 100 µM; in assay [2] it was over 100 µM; in assay [3] it was 81.7 µM; in assay [10] it was over 100 µM; in [5] it was 78.4 µM; in assay [6], over 100 µM. Besides, the TGI in assay [7], in [8] and in [9] was over 100 µM each time.
In the case of `Oc1c(I)cc(I)cc1CNCCCN(Cc1ccccn1)Cc1ccccn1`, the GI50 is 1.21 µM in [1]; 1.32 µM in assay [2]; 0.983 µM in [3]; 1.01 µM in [4]; 1.25 µM in assay [10]; 1.34 µM in assay [5]. Also, the GI50 is 1.38 µM in assay [7], 0.885 µM in assay [8] and 1.51 µM in [9]. Besides, the TGI in assay [1] was 3.39 µM; in assay [2] it was 3.82 µM; in assay [3] it was 1.91 µM; in assay [4], 2.18 µM; in assay [10] it was 3.27 µM; in [5] it was 4.48 µM. In addition, the TGI in assay [7] was 4.53 µM; in [8], 1.74 µM; in [9], 4.63 µM.
`Cc1cc(S(=O)(=O)O)ccc1N=Nc1ccc(N=Nc2c(O)ccc3ccccc23)c(C)c1`: the TGI in assay [1] was over 100 µM; in assay [2], over 100 µM; in assay [4] it was over 100 µM; in assay [10], over 100 µM; in assay [5], 68.5 µM; in assay [6], over 100 µM. The TGI in assay [7], in assay [8] and in assay [9] was over 100 µM each time.
With `Cc1ccc([N+](=O)[O-])cc1S(=O)(=O)Nc1ccc(C2=NN(c3ccc([N+](=O)[O-])cc3[N+](=O)[O-])C(c3ccccc3O)C2)cc1` (stereo not drawn), the TGI in assay [1] was 82.7 µM; in [2] it was over 100 µM; in [4], over 100 µM; in assay [10], over 100 µM; in assay [5], 83.1 µM; in assay [6], over 100 µM. For the same molecule, the TGI in [7], in assay [8] and in [9] was over 100 µM in each case.
`CC(NC(=O)C(C)C(=O)NCc1ccc(C(F)(F)F)cc1)C(N)=O` (stereo not drawn): the TGI in assay [1], in assay [2], in assay [4], in assay [10], in [5] and in assay [6] was over 100 µM in each case. Further, the TGI in assay [7], in assay [8] and in [9] was over 100 µM throughout.
For `O=C(NCCO)c1c(O)c2ccccc2[nH]c1=O`, the TGI in [1], in assay [2], in [3], in [10], in assay [5] and in assay [7] was over 100 µM each time. In addition, the TGI in assay [8] and in [9] was over 100 µM in each case.
For the molecule `COC(=O)C1(NC(=O)C(N)CC(=O)O)C(C)C1C` (stereo not drawn), the TGI in assay [1], in [2], in assay [4], in assay [10], in [5] and in assay [6] was over 100 µM each time. The TGI in assay [7], in assay [8] and in assay [9] was over 100 µM in each case.
Turning to `CCCCCCC(CCl)c1sc(-c2csc(CCNC(=O)OC(C)(C)C)n2)nc1C(=O)OC` (stereo not drawn), the TGI in [1] was 67.6 µM; in [2], over 100 µM; in assay [3], 62.6 µM; in assay [4] it was 88.2 µM; in assay [10], over 100 µM; in assay [5], over 100 µM. For the same molecule, the figures for the TGI in [7], in [8] and in [9] were 65.9 µM, over 100 µM and over 100 µM, respectively.
Regarding `CCC(=N\NC(N)=S)/C(C)=N/O`, the TGI in assay [1], in assay [2], in assay [3], in [4], in [10] and in assay [6] was over 100 µM throughout. Also, the TGI in assay [7], in [8] and in [9] was over 100 µM in each case.

Values taken from PubChem BioAssay (NCI).
